{"source": "patent US8449930B2", "about": "“Drug or dermatological composition containing an avocado peptide extract for treating and preventing pruritus” (Laboratoires Expanscience, priority 2008, dated 2013)", "assay_type_in_all_cases": "cell-based", "key": {"[1]": {"test_system": "Normal human epidermal keratinocytes (NHEK)", "assay": "Synthesis of GAGs by keratinocytes (35S-sulfate incorporation)", "conditions": "72 hours", "description": "(§1) Normal human epidermal keratinocytes (NHEK) were pre-cultured for 24 hours at 37° C. and 5% CO2 in low-calcium (0.09 mM) SFM (Invitrogen) medium supplemented with 0.25 ng/ml EGF (Invitrogen), 25 μg/ml pituitary extract (Invitrogen) and 25 μg/ml gentamycin (Sigma).\n(§2) The keratinocytes were then treated for 72 hours with the avocado peptide extract (0.05% DM and 0.005% DM), according to example 1, or by the references: 0.1 μM retinoic acid (Sigma) or 1.5 mM calcium (Prolabo). Two identical series were prepared in order to assay both the release/production of hyaluronic acid and the incorporation of […] in the GAGs fraction. The batch corresponding to the assay of the GAGs was supplemented with ^35S-sulfate (Amersham) after 48 hours of culture (labeling during the last 24 hours).\nAt the end of the treatment, in the batch corresponding to the assay of GAGs, the incorporated radioactivity was counted and thus the variation in the synthesis of GAGs in relation to the control was analyzed.\n(§3) Intergroup comparisons were carried out by analysis of variance using Dunnett's multiple comparison test."}, "[2]": {"test_system": "Rat peritoneal mast cells", "assay": "Release of histamine by mast cells induced by substance P", "description": "(§4) The studies presented below were carried out on rat peritoneal mast cells. These cells have the same features as cutaneous mast cells and thus constitute an experimental model representative of human skin.\nRat peritoneal mast cells (10,000 cells in suspension/250 μl Tyrode's buffer) were incubated for […] at 37° C. in the presence or absence of 0.05%, 0.5% and 1% (w/v) avocado peptide extract, obtained in example 1, or 10 mM calcium, used as the reference histamine release inhibitor.\nThe cells were then stimulated for 10 minutes by 10 μM substance P (Neosystem) in the presence of 0.3 mM calcium.\nThe reaction was quenched by centrifugation and the supernatants and cell pellets were taken up in 0.8 N perchloric acid in order to assay histamine using the spectrofluorometric method.\nThe quantities of histamine released were expressed as a percentage of release (quantity in supernatants/total quantity)."}, "[3]": {"test_system": "Rat peritoneal mast cells", "assay": "Release of tryptase by mast cells induced by calcium ionophore A23187", "conditions": "50 μM quercetin", "description": "as §4\nRat peritoneal mast cells (2×10^3 cells/ml) were incubated for 30 minutes at 37° C. in the presence or absence of 0.005% (w/v) avocado peptide extract (obtained in example 1) or 50 μM quercetin (Sigma), the reference tryptase release inhibitor. The cells were then stimulated for 15 minutes by 0.5 μM calcium ionophore A23187 (Millipore). The calcium ionophore is used to induce the release of tryptase (it induces an influx and mobilization of intracellular calcium). The reaction was quenched by centrifugation at 4° C.\nTryptase release was evaluated by assaying tryptase in the cell pellets and supernatants by means of the Mast Cell Degranulation Assay Kit (Millipore). This test is based on the spectrophotometric detection of the chromophore p-nitroaniline (pNA) after cleavage of the tosyl-gly-pro-lys-pNA substrate by tryptase."}, "[4]": {"test_system": "Normal human epidermal keratinocytes (NHEK)", "assay": "Synthesis/release of hyaluronic acid by keratinocytes (ELISA)", "conditions": "0.1 μM retinoic acid, 72 hours, culture supernatants", "description": "as §1, §2\nIn the batch corresponding to the assay of hyaluronic acid, at the end of the treatment, the culture supernatants were collected and hyaluronic acid was assayed using a specific modified ELISA test (Biogenic).\nas §3"}, "[5]": {"test_system": "PAR-2", "assay": "PAR-2 gene expression in reconstructed epidermises (cDNA arrays)", "conditions": "1 μM retinoic acid, 6 hours", "description": "Seventeen-day reconstructed epidermises (Skinethic) were treated systemically with 0.04% (w/v) avocado peptide extract (obtained in example 1) or 1 μM retinoic acid (Sigma, positive reference) for 6 hours.\nGene expression was analyzed using standard simplified DNA arrays. These microarrays involved spotting specific cDNA markers of interest on nylon membranes. Analysis was carried out according to a suitable miniaturized and optimized technology based on the use of messenger RNA and ^33P labeling.\nWhen culturing was complete, the epidermises were rinsed with phosphate buffered saline (PBS) solution. The total RNA of the epidermises was then extracted and purified using TRI Reagent (Sigma) according to a standardized protocol. RNA quantity and quality were then evaluated using an Agilent 2100 bioanalyzer. The mRNA of each culture was reverse transcribed using oligo(dT) and a ^33P-labeled deoxyribonucleotide triphosphate. Multiple labeled cDNA “target” sequences were prepared for each culture. These targets were then hybridized, under optimized conditions, with cDNA “probes” in excess bound to membranes. After washing, the relative quantity of labeled target was measured by direct counting using a Phosphorlmager.\nThe membranes were analyzed using suitable software."}}, "data": [{"smiles": "[Ca+2]", "note": "[calcium]", "values": [{"measurement": "Incorporation of 35S-sulfate (cpm)", "setting": "[1]; 1.5 mM calcium", "value": 17753, "unit": "cpm"}, {"measurement": "Histamine (% release) Mean", "setting": "[2]; 10 mM calcium (reference inhibitor), stimulated 10 min by 10 μM substance P", "value": 16, "unit": "% release"}, {"measurement": "Percentage inhibition of histamine release", "setting": "[2]; calcium, 10 μM in table 8, 10 mM in text, vs stimulated control (substance P)", "value": "−78", "unit": "%"}]}, {"smiles": "O=c1c(O)c(-c2ccc(O)c(O)c2)oc2cc(O)cc(O)c12", "note": "[quercetin]", "values": [{"measurement": "Tryptase (ng/ml) Mean", "setting": "[3]; 30 min preincubation, stimulated 15 min by 0.5 μM calcium ionophore A23187", "value": 44, "unit": "ng/mL"}, {"measurement": "inhibition at 50 µM", "setting": "[3]; Rattus norvegicus, Mast cell, vs stimulated control (Ca ionophore), read-out: Percentage inhibition of tryptase release", "value": 47, "unit": "%"}]}, {"smiles": "CC1=C(/C=C/C(C)=C/C=C/C(C)=C/C(=O)O)C(C)(C)CCC1", "note": "[retinoic acid]", "values": [{"measurement": "HA", "setting": "[4]", "value": 11503, "unit": "ng/mL"}, {"measurement": "Incorporation of 35S-sulfate (cpm)", "setting": "[1]; 0.1 μM retinoic acid", "value": 13217, "unit": "cpm"}, {"measurement": "Percentage (change in synthesis of GAGs vs control cells)", "setting": "[1]; 0.1 μM retinoic acid", "value": "+18%"}, {"measurement": "PAR-2 (relative expression) Mean", "setting": "[5]; systemic treatment", "value": 3}, {"measurement": "Percentage inhibition of PAR-2 gene expression", "setting": "[5]; vs control epidermises", "value": "−29", "unit": "%"}]}]}
